Experimental findings from patent US7256201B2, “Selective estrogen receptor-β ligands” (AstraZeneca AB, priority 2000, dated 2007) are described below.

T4 sequence (Q92731 54-530 limits assumed): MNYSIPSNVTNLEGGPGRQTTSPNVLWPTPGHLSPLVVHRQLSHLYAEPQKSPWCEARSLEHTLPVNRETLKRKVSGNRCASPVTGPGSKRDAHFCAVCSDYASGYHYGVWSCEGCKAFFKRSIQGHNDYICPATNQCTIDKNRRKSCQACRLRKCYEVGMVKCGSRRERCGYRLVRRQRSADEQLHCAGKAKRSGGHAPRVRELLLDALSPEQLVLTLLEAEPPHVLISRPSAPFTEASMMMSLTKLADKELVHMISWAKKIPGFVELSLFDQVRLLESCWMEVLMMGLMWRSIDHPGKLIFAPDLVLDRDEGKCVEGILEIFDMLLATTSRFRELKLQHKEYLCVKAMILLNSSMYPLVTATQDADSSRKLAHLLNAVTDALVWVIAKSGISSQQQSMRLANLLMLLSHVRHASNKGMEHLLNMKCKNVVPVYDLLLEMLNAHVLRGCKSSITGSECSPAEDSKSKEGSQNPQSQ
T3 sequence (Q92731 whole entry): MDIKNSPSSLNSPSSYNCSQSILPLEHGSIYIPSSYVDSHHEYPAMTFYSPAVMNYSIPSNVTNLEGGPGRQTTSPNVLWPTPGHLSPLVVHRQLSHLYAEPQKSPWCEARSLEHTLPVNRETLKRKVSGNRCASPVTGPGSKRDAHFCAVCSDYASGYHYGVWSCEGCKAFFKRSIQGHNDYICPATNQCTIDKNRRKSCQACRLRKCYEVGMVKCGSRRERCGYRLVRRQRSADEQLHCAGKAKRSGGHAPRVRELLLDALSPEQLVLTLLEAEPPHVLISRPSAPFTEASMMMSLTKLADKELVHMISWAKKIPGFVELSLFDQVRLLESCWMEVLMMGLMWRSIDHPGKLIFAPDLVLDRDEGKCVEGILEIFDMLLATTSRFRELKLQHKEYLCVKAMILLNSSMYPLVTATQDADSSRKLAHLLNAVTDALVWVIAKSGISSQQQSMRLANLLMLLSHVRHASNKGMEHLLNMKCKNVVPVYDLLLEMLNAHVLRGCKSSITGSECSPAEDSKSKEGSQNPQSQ

The first test addresses T1, human recombinant ERα (Homo sapiens, UniProt P03372).
T1 construct: purchased PanVera (Madison, Wis.)
T1 sequence (P03372 1-595): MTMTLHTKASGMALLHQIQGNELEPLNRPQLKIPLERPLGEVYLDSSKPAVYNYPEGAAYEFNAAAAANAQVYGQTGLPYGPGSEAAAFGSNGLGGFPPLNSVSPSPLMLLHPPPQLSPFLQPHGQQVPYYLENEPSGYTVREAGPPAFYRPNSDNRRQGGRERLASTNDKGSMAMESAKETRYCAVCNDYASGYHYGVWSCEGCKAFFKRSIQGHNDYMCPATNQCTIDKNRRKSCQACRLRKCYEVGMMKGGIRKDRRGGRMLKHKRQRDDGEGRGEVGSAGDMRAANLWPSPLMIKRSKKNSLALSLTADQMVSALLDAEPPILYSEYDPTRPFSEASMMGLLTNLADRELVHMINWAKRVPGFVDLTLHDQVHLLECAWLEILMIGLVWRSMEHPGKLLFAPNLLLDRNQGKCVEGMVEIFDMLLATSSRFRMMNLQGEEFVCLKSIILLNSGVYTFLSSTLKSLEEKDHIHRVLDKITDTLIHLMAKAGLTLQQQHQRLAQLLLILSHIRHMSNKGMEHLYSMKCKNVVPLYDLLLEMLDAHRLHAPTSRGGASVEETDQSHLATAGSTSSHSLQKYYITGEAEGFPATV
Description: Fluorescence polarization estrogen receptor (ERFP) binding assay, ERα. To be noted: competition with Fluormone ES2; IC50 converted to Ki by Kenakin formula; read-out: FP α-ER Ki. How it is done: (§1) A homogeneous mix-and-measure estrogen receptor (ER) binding assay which utilizes fluorescence polarization (FP) technology is used to identify compounds with affinity for the estrogen receptor. Purchased from PanVera (Madison, Wis.), assay reagents include purified human recombinant ERα, human recombinant ERβ, ES2 screening buffer (100 mM potassium phosphate, pH 7.4, 100 μg/mL bovine gamma globulin), and Fluormone™ ES2.
(§2) For competition binding experiments, dilutions of test compounds are prepared at 2× the final assay concentration in 0.2% DMSO in ES2 Screening buffer on TECAN Genosys, and 25 μL compound/well is dispensed into black Costar ½ volume 96-well plates. Dependent upon a lot specific Kd determination, 10-40 nM ERα or 10-40 nM ERβ and 1 nM Fluormone ES2 are then added to these plates in a final assay volume of 50 μL/well. Plates are gently shaken for at least 5 minutes to mix and incubated for at least 1 hr 45 minutes to achieve equilibrium. (Reaction mixtures are stable for up to 5 hours). After centrifugation to remove air bubbles, plates are read on an LJL Analyst or Acquest equipped with Criterion software at the following settings: Fluorescence Polarization Mode; Static Polarizer on Excitation Side; Dynamic Polarizer on Emission Side; Excitation λ=485×/−5 10 nm; Emission λ=520+/−12.5 nm.
(§3) Polarized fluorescence intensity values are collected and subsequently converted electronically to millipolarization (mp) values. Following data reduction and normalization with Excel and/or Prism software, % Ctrl values at the various test concentrations are used to obtain IC50 values via non-linear regression analysis of a four-parameter logistic equation.
(§4) Because ligand depletion is a consideration in this assay (˜40-60% input ES2 is bound in the assay), IC50 values are converted to Ki values through application of the Kenakin formula, as outlined in the reference below, rather than via the more routinely-used Cheng-Prusoff formula.
Background: In fluorescence polarisation assays a small probe gives low polarisation when free and higher when bound to something large.
As to `Cc1ccc(N2CCc3cc(O)ccc3C2c2ccoc2)cc1O` (stereo not drawn) [Example 21, 1-Furan-3-yl-2-(3-hydroxy-4-methyl-phenyl)-1,2,3,4-tetrahydro-isoquinolin-6-ol], the Ki – broadly, a measure of affinity in units of concentration, obtained from inhibition or displacement – came to 22 nM.
On to `Oc1ccc(N2Cc3ccc(O)cc3C2)cc1` [Example 25, 5-Hydroxy-2-(4-hydroxyphenyl)isoindoline], for which the Ki was found to be 190 nM.
For `CCC1c2cc(O)ccc2CN1c1ccc(O)cc1` (stereo not drawn) [Example 26, 1-Ethyl-6-hydroxy-2-(4-hydroxyphenyl)isoindoline], the Ki was found to be 200 nM.

A further test has as its target T2, αER (Homo sapiens, UniProt P03372).
T2 construct: expressed in transfected cells; host or cells: 293 cells (Human Embryonic Kidney, ATCC CRL-1573)
T2 sequence (P03372 1-595): T1 sequence (P03372 1-595)
Put plainly: Cell-based assay for ER transcriptional activity (ERE β-gal reporter), αER-transfected 293 cells. To be noted: 293 cells transfected with αER and ERE reporter; maximal response; unit assumed. How it is done: (§5) ERs are ligand-dependent transcription factors that bind the promoter regions of genes at a consensus DNA sequence called the estrogen responsive element (ERE). The ER agonist or antagonist activity of a drug was determined by measuring the amount of reporter enzyme activity expressed from a plasmid under the control of an estrogen-responsive element when cells transiently transfected with ER and the reporter plasmid were exposed to drug. These experiments were conducted according to the following methods.
(§6) Estrogen Receptors alpha (αER, Gen Bank accession #M12674), and beta (βER, Gen Bank #X99101 were cloned into the expression vector pSG5 (Stratagene). A trimer of the vitellogenin-gene estrogen response element (vitERE) was synthesized as an oligonucleotide and attached to a beta-globin basal promoter in a construct named pERE3 gal. This response element and promoter were removed from pERE3 gal by digestion with the endonucleases SpeI (filled with Klenow fragment) and HindIII. This blunt/Hind III fragment was cloned into the β-galactosidase (β-gal) enhancer reporter plasmid (pBGALenh, Stratagene). αER and βER plasmids were purified using a the Endo Free Maxi Kit (Qiagen), and the DNA concentration and purity (A260/280 ratio) were determined spectrophotometrically (Pharmacia). Only DNA with A260/280 ratio of 1.8 and a concentration of >1 ug/uL was used for transfections.
(§7) All Transfections are performed in 293 cells (Human Embryonic Kidney cells ATCC #CRL-1573). Cells are grown in DMEM supplemented with 10% FBS, glutamine, sodium pyruvate and penicilin/streptomycin. Cells are grown to 70% confluency and split 1:4.
(§8) • 1. 293 cells are split the night before onto collagen I-coated 150 mm tissue-culture plates (Biocoat, Becton Dickinson #354551) at a density of 60-70% in DMEM Mediatech 17-205-CV) 10% charcoal-stripped FBS (biocell #6201-31). Approximately 1×10^7 cells/plate will yield 70% confluency. • 2. The next morning, 1 hour prior to transfection, the media is changed to fresh DMEM 10% FBS stripped and supplements. • 3. Transfections are performed using the Profection Kit (Promega #E1200). This kit is based on the calcium-phosphate-mediated transfection technique. Reagents are added in sterile polystyrene tubes in the following order:
(§9) Solution A • 15 μg αER or βER • 45 μg Reporter (pBGALenh or ERE3) • 1.5 mL Sterile Water • 186 μL CaCl2 • *Mix gently
(§10) Solution B • 1.5 mL 2× Hank's Buffered Salt Solution • 4. Using a vortex set on low, add solution A to solution B dropwise. The resulting solution should become milky in color. It is important to achieve thorough mixing. The solution is allowed to settle for 30 minutes, then vortexed before adding the solution to cells. • 5. Add the mixture to 150 mm plates dropwise. Mix well by rocking plates back and forth and side to side gently. After an hour, a very fine precipitate should be seen floating on and above cells under 20× magnification. If this precipitate is not observed, the transfection will not be effective. Incubate the cells for 12 hours. Receptor Stimulation: • 1. The day after transfection, cells are washed 2× with calcium- and magnesium-free Mg free PBS containing 1 mM EGTA (pH 7.6). Cells are trypsinized for 2 min with 3 mL of trypsin-EDTA. Trypsin is neutralized with DMEM 10% FCS. Cells are pelleted at 1000×g for 5 min. The cell pellet is then resuspended in 5 mL DMEM plus 2% phenol-red-free FCS supplemented with glutamine, pyruvate, and Penn/Strep. • 2. 50 μl of the resulting cell suspension is plated into each well of 96-well tissue culture dishes (Biocoat B&D #354407) using a multi-channel pipettor. The dishes have been previously loaded with 50 μL of DMSO-solubilized test compounds at twice the test concentration in DMEM. Data reported are either n=4 wells (single poke) and n=2 wells (9-point concentration-response curves). • 3. Cells are incubated overnight at 37° C. in the selected compounds. Reporter Assay: • 1. […]
Take `Cc1ccc(N2CCc3cc(O)ccc3C2c2ccoc2)cc1O` (stereo not drawn) [Example 21, 1-Furan-3-yl-2-(3-hydroxy-4-methyl-phenyl)-1,2,3,4-tetrahydro-isoquinolin-6-ol]: the ERE α-ER Max is 77%.
`Oc1ccc(N2Cc3ccc(O)cc3C2)cc1` [Example 25, 5-Hydroxy-2-(4-hydroxyphenyl)isoindoline]: the ERE α-ER Max was 60%.
Turning to `CCC1c2cc(O)ccc2CN1c1ccc(O)cc1` (stereo not drawn) [Example 26, 1-Ethyl-6-hydroxy-2-(4-hydroxyphenyl)isoindoline], the ERE α-ER Max was 102%.

Staying with this test, now noted: 293 cells transfected with αER and ERE reporter; read-out: ERE α-ER EC50.
As to `Cc1ccc(N2CCc3cc(O)ccc3C2c2ccoc2)cc1O` (stereo not drawn) [Example 21, 1-Furan-3-yl-2-(3-hydroxy-4-methyl-phenyl)-1,2,3,4-tetrahydro-isoquinolin-6-ol], the half-maximal effective concentration (EC50) (usually the midpoint of the concentration-response curve) is 0.8 nM.
Turning to `Oc1ccc(N2Cc3ccc(O)cc3C2)cc1` [Example 25, 5-Hydroxy-2-(4-hydroxyphenyl)isoindoline], the EC50 came out at 192 nM.
On to `CCC1c2cc(O)ccc2CN1c1ccc(O)cc1` (stereo not drawn) [Example 26, 1-Ethyl-6-hydroxy-2-(4-hydroxyphenyl)isoindoline], for which the EC50 turned out to be 73 nM.

A further test has as its target T3, human recombinant ERβ (Homo sapiens, UniProt Q92731).
T3 construct: purchased PanVera (Madison, Wis.)
Description: Fluorescence polarization estrogen receptor (ERFP) binding assay, ERβ. To be noted: competition with Fluormone ES2; IC50 converted to Ki by Kenakin formula; read-out: FP β-ER Ki. How it is done: as §1, §2, §3, §4
`Cc1ccc(N2CCc3cc(O)ccc3C2c2ccoc2)cc1O` (stereo not drawn) [Example 21, 1-Furan-3-yl-2-(3-hydroxy-4-methyl-phenyl)-1,2,3,4-tetrahydro-isoquinolin-6-ol]: the inhibition constant Ki amounted to 3.8 nM.
Consider `Oc1ccc(N2Cc3ccc(O)cc3C2)cc1` [Example 25, 5-Hydroxy-2-(4-hydroxyphenyl)isoindoline], for which the inhibition constant Ki worked out at 55 nM.
In the case of `CCC1c2cc(O)ccc2CN1c1ccc(O)cc1` (stereo not drawn) [Example 26, 1-Ethyl-6-hydroxy-2-(4-hydroxyphenyl)isoindoline], the inhibition constant Ki came to 160 nM.

Staying with this test, now noted: ratio α-ER Ki / β-ER Ki.
Consider `Cc1ccc(N2CCc3cc(O)ccc3C2c2ccoc2)cc1O` (stereo not drawn) [Example 21, 1-Furan-3-yl-2-(3-hydroxy-4-methyl-phenyl)-1,2,3,4-tetrahydro-isoquinolin-6-ol], for which the “FP Selectivity” value turned out to be 6.0.
As for `Oc1ccc(N2Cc3ccc(O)cc3C2)cc1` [Example 25, 5-Hydroxy-2-(4-hydroxyphenyl)isoindoline], the “FP Selectivity” value is 3.5.
As to `CCC1c2cc(O)ccc2CN1c1ccc(O)cc1` (stereo not drawn) [Example 26, 1-Ethyl-6-hydroxy-2-(4-hydroxyphenyl)isoindoline], the “FP Selectivity” value was 1.3.

A further test concerns the target T4, βER (Homo sapiens, UniProt Q92731).
T4 construct: expressed in transfected cells; host or cells: 293 cells (Human Embryonic Kidney, ATCC CRL-1573)
Description: Cell-based assay for ER transcriptional activity (ERE β-gal reporter), βER-transfected 293 cells. To be noted: 293 cells transfected with βER and ERE reporter. How it is done:
as §5, §6, §7, §8, §9, §10
Take `Cc1ccc(N2CCc3cc(O)ccc3C2c2ccoc2)cc1O` (stereo not drawn) [Example 21, 1-Furan-3-yl-2-(3-hydroxy-4-methyl-phenyl)-1,2,3,4-tetrahydro-isoquinolin-6-ol]: the EC50 stood at 0.7 nM.
Molecule `Oc1ccc(N2Cc3ccc(O)cc3C2)cc1` [Example 25, 5-Hydroxy-2-(4-hydroxyphenyl)isoindoline] yielded an EC50 of 161 nM.
Same read-out and setting: with `CCC1c2cc(O)ccc2CN1c1ccc(O)cc1` (stereo not drawn) [Example 26, 1-Ethyl-6-hydroxy-2-(4-hydroxyphenyl)isoindoline] the figure was 79 nM.

Still in this test, the particulars now being: 293 cells transfected with βER and ERE reporter; maximal response; unit assumed.
As for `Cc1ccc(N2CCc3cc(O)ccc3C2c2ccoc2)cc1O` (stereo not drawn) [Example 21, 1-Furan-3-yl-2-(3-hydroxy-4-methyl-phenyl)-1,2,3,4-tetrahydro-isoquinolin-6-ol], the ERE β-ER Max was determined as 106%.
`Oc1ccc(N2Cc3ccc(O)cc3C2)cc1` [Example 25, 5-Hydroxy-2-(4-hydroxyphenyl)isoindoline] yielded an ERE β-ER Max of 77%.
Take `CCC1c2cc(O)ccc2CN1c1ccc(O)cc1` (stereo not drawn) [Example 26, 1-Ethyl-6-hydroxy-2-(4-hydroxyphenyl)isoindoline]: the ERE β-ER Max was 85%.

The same test, now with this note: ratio α-ER EC50 / β-ER EC50.
With `Cc1ccc(N2CCc3cc(O)ccc3C2c2ccoc2)cc1O` (stereo not drawn) [Example 21, 1-Furan-3-yl-2-(3-hydroxy-4-methyl-phenyl)-1,2,3,4-tetrahydro-isoquinolin-6-ol], the “ERE Selectivity” value worked out at 1.1.
On to `Oc1ccc(N2Cc3ccc(O)cc3C2)cc1` [Example 25, 5-Hydroxy-2-(4-hydroxyphenyl)isoindoline], for which the “ERE Selectivity” value is reported as 1.2.
Turning to `CCC1c2cc(O)ccc2CN1c1ccc(O)cc1` (stereo not drawn) [Example 26, 1-Ethyl-6-hydroxy-2-(4-hydroxyphenyl)isoindoline], the “ERE Selectivity” value is listed as 0.9.
